Structures can show the parent of a compound that is named as a salt. Blank lines part the entries; values can stand above or below the compound they belong to.
How the values were obtained:
[1] = target: T1, serotonin S2 (5-HT2) receptors in rat cortex (Rattus norvegicus, UniProt P14842); assay: Inhibition of ^3H-ketanserin binding to serotonin S2 (5-HT2) receptors in rat cortex in vitro; conditions: 0.5 nM ^3H-ketanserin, rat cortex membranes, 37° C., 30 min
T1 construct: Serotonin S2 (5-HT2) receptors in membranes from rat; from tissue; host or cells: cerebral cortex membranes of male Wistar rats (printed 'conical tissue', a misprint for cortical)
T1 sequence (P14842 whole entry): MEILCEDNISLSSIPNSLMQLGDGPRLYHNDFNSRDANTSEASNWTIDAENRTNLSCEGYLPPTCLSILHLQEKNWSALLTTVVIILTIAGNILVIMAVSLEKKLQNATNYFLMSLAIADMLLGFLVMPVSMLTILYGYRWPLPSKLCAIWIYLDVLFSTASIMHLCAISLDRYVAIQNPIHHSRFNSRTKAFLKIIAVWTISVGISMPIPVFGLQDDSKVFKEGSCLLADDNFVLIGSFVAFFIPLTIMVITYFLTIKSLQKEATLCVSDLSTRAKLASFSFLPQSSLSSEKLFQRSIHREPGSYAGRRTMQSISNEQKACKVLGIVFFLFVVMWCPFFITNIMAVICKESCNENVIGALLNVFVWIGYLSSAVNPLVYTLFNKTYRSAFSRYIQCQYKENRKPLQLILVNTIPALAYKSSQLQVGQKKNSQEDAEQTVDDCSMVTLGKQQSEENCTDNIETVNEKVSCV
Procedure: Method in Hyttel, Pharmacology & Toxicology, 61, 126-129, 1987.
Male Wistar (Mol:Wist) rats (125-250 g) are sacrificed and conical tissue is dissected and weighed. The tissue is homogenized (Ultra Turrax, 10 sec.) in 10 ml of ice-cold 50 mM tris buffer pH 7.7 (at 25° C.). The centrifuge glassware used in this step has been rinsed by sonication for 10 min. in ethanol. The homogenate is centrifuged twice at 20,000 g for 10 min. at 4° C. with rehomogenization of the pellet in 10 ml ice-cold buffer. The final pellet is homogenized in 500 vol (w/v)ice-cold buffer.
Incubation tubes kept on ice in triplicate receive 100 μl Of drug solution in water (or water for total binding) and 2000 μl of tissue suspension (final tissue content corresponds to 4 mg original tissue). […] After incubation for 30 min. the samples are filtered under vacuum (0-50 mBar) through Whatman GF/F filters (25 mm). The tubes are rinsed with 5 ml ice-cold buffer which are then poured on the filters. Thereafter, the filters are washed with 2×5 ml of buffer. The filters are placed in counting vials and 4 ml of appropriate scintillation fluid (e.g. Picofluor ™15) are added. After shaking for 1 h and storage 2 hrs in the dark the content of radioactivity is determined by liquid scintillation counting. Specific binding is obtained by subtracting the nonspecific binding in the presence of 1 μM mianserin. For determination of the inhibition of binding five concentrations of drugs covering 3 decades are used.
The IC50 value is determined as the concentration at which the binding is 50% of the total binding in control samples minus the nonspecific binding in the presence of 1 μM mianserin.

[2] = target: dopamine D-2 receptors in rat corpus striatum (Rattus norvegicus, UniProt P61169); assay: Inhibition of ^3H-spiperone (spiroperidol) binding to dopamine D-2 receptors in rat corpus striatum in vitro; conditions: 0.5 nM ^3H-spiperone, rat striatum membranes, 37° C., 10 min
Chain of dopamine D-2 receptors in rat corpus striatum (P61169 whole entry): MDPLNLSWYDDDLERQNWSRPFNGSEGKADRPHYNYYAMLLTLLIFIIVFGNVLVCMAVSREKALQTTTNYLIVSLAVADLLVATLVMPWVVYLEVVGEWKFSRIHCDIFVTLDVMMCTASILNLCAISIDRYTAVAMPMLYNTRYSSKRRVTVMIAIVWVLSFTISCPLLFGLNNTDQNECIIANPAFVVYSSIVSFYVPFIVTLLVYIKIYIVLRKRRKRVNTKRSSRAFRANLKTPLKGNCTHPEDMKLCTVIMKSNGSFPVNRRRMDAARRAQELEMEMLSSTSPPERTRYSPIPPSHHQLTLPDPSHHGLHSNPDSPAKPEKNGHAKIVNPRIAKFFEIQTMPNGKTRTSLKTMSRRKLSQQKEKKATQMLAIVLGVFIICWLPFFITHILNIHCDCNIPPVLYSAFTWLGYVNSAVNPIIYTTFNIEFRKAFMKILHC
Procedure: By this method the inhibition by drugs of the binding of ^3 H-spiperone (=^3 H-spiroperidol) (0.5 nM) to dopamine D-2 receptors in membranes from rat corpus striatum is determined in vitro. Method and results in Hyttel & Larsen, J. Neurochem, 44, 1615-1622, 1985).
Male Wistar (Mol:Wistar) rats (125-250 g) are sacrificed and striatal tissue is dissected and weighed. The tissue is homogenized (Ultra Turrax, 10 sec.) in 10 ml of ice-cold 50 mM K-phosphate buffer pH 7.4 (at 25° C.). The homogenate is centrifuged twice at 20,000 g for 10 min. at 4° C. with rehomogenization of the pellet in 10 ml ice-cold buffer. The final pellet is homogenized in 1300 vol (w/v) ice-cold buffer.
Incubation tubes kept on ice in triplicate receive 100 μl of drug solution in water (or water for total binding) and 4000 μl Of tissue suspension (final tissue content corresponds to 3.08 mg original tissue). The binding experimental is initiated by addition of 100 μl of ^3 H-spiperone (final concentration 0.5 nM) and by placing the tubes in a 37° C. water bath. After incubation for 10 min. the samples are filtered under vacuum (0-50 mBar) through Whatman GF/F filters (25 mm). The tubes are rinsed with 5 ml ice-cold buffer which are then poured on the filters. Thereafter, the filters are washed with 2×5 ml of buffer. The filters are placed in counting vials and 4 ml of appropriate scintillation fluid (e.g. Picofluor ™15) are added. After shaking for 1 h and storage 2 hrs in the dark the content of radioactivity is determined by liquid scintillation counting. Specific binding is obtained by subtracting the nonspecific binding in the presence of 10 μM of 6,7-ADTN.
For determination of the inhibition of binding five concentrations of drugs covering 3 decades are used.
The measured cpm are plotted against drug concentration on semilogarithmic paper and the best fitting S-shaped curve is drawn. […] England, specific activity 15-25 Ci/mmol.

Structure (SMILES): Cc1ccc2c(c1)c(-c1ccc(F)cc1)cn2C1CCN(CCO)CC1 [Compound 16a, 3-(4-Fluorophenyl)-1-[1-(2-hydroxyethyl)-4-piperidyl]-5-methyl-1H-indole, oxalate]
IC50 [1]: 0.022 µM
IC50 [2]: 1.5 µM

Structure (SMILES): O=C1OCCN1CCN1CCC(n2cc(-c3ccc(F)cc3)c3cc(F)ccc32)CC1 [Compound 4o, 5-Fluoro-3-(4-fluorophenyl)-1-[1-[2-(oxazolidin-2-on-3-yl)ethyl]-4-piperidyl]-1H-indole]
IC50 [1]: 0.037 µM
IC50 [2]: 0.79 µM

Structure (SMILES): Cc1ccc2c(c1)c(-c1ccc(F)cc1)cn2C1CCN(CCN2CCN(C(C)C)C2=O)CC1 [Compound 4h, 3-(4-Fluorophenyl)-5-methyl-1-[1-[2-[3-(2-propyl)imidazolidin-2-on-1-yl]ethyl]-4-piperidyl)-1H-indole, oxalate]
IC50 [1]: 0.0027 µM
IC50 [2]: 1.1 µM

IC50 [1]: 0.22 µM
IC50 [2]: 42 µM
Structure (SMILES): O=C1NCCN1CCN1CCC(n2nc(-c3ccc(F)cc3)c3cc(C(F)(F)F)ccc32)CC1 [Compound 4u, 3-(4-Fluorophenyl)-1-[1-[2-(imidazolidin-2-on-1-yl)ethyl]-4-piperidyl]-5-trifluoromethyl-1H-indazole]

Structure (SMILES): CN1CCN(CCN2CCC(n3cc(-c4ccc(F)cc4)c4cc(Cl)ccc43)CC2)C1=O [Compound 4f, 5-Chloro-3-(4-fluorophenyl)-1-[1-[2-(3-methylimidazolidin-2-on-1-yl)ethyl]-piperidyl]-1H-indole]
IC50 [1]: 0.0014 µM
IC50 [2]: 0.55 µM

Structure (SMILES): CNC(=O)N(C)CCN1CCC(n2cc(-c3ccc(F)cc3)c3cc(C)ccc32)CC1 [Compound 15a, 1-[1-[2-(1,3-Dimethyl-1-ureido)ethyl]-4-piperidyl]-3-(4-fluorophenyl)-5-methyl-1H-indole, hydrochloride]
IC50 [1]: 0.0018 µM
IC50 [2]: > 1 µM

Structure (SMILES): Cc1ccc2c(c1)c(-c1ccc(F)cc1)c(C)n2C1=CCN(C)CC1 [Compound 6b, 2,5-Dimethyl-3-(4-fluorophenyl)-1-(1-methyl-1,2,3,6-tetrahydropyridin-4-yl)-1H-indole]
IC50 [1]: 0.0038 µM
IC50 [2]: 0.71 µM

Structure (SMILES): Cc1c(-c2ccccc2)c2cc(Cl)ccc2n1C1CCN(C)CC1 [Compound 9b, 5-Chloro-2-methyl-3-phenyl-1-(1-methyl-4-piperidyl)-1H-indole]
IC50 [1]: 0.017 µM
IC50 [2]: 2.9 µM

Structure (SMILES): Cc1ccc2c(c1)c(-c1ccc(F)cc1)cn2C1CCN(CCN2CCCC2=O)CC1 [Compound 4j, 3-(4-Fluorophenyl)-5-methyl-1-[1-[2-(2-pyrrolidinon-1-yl)ethyl]-4-piperidyl]-1H-indole, oxalate]
IC50 [1]: 0.0045 µM
IC50 [2]: 1.2 µM

Structure (SMILES): Cc1ccc2c(c1)c(-c1ccc(F)cc1)c(C)n2C1=CCN(CCN2CCNC2=O)CC1 [Compound 6a, 2,5-Dimethyl-3-(4-fluorophenyl)-1-[1-[2-(imidazolidin-2-on-1-yl)ethyl]-1,2,3,6-tetrahydropyridin-4-yl]-1H-indole]
IC50 [1]: 0.0028 µM
IC50 [2]: 6.3 µM

Structure (SMILES): CC(C)N1CCN(CCN2CCC(n3cc(-c4ccc(F)cc4)c4cc(Cl)ccc43)CC2)C1=O [Compound 4e]
IC50 [1]: 0.0054 µM
IC50 [2]: 0.57 µM

Structure (SMILES): O=C1NCCN1CCN1CCC(n2nc(-c3ccc(F)cc3)c3ccc(Cl)cc32)CC1 [Compound 4t, 6-Chloro-3-(4-fluorophenyl)-1-[1-[2-(imidazolidin-2-on-1-yl)ethyl]-4-piperidyl]-1H-indazole]
IC50 [1]: 0.038 µM
IC50 [2]: 1.9 µM

Structure (SMILES): O=C1NCCN1CCN1CCC(n2cc(-c3ccc(F)cc3)c3ccc(Cl)cc32)CC1 [Compound 4b, 6-Chloro-3-(4-fluorophenyl)-1-[1-[2-(imidazolidin-2-on-1-yl)ethyl]-4-piperidyl]-1H-indole]
IC50 [1]: 0.0019 µM
IC50 [2]: 0.037 µM

Structure (SMILES): O=C1NCCN1CCN1CCC(n2cc(-c3ccc(F)cc3)c3cc(C(F)(F)F)ccc32)CC1 [Compound 7b, 3-(4-Fluorophenyl)-1-[1-[2-(imidazolidin-2-on-1-yl)ethyl]-4-piperidyl]-5-trifluoromethyl-1H-indole]
IC50 [1]: 0.0062 µM
IC50 [2]: > 1 µM

Structure (SMILES): O=C1NCCN1CCN1CCC(n2cc(-c3ccc(F)cc3)c3cc(Cl)ccc32)CC1 [Compound 4d, 5-Chloro-3-(4-fluorophenyl)-1-[1-[2-(imidazolidin-2-on-1-yl)ethyl]-4-piperidyl]-1H-indole]
IC50 [1]: 0.0057 µM
IC50 [2]: 0.41 µM

Structure (SMILES): Cc1ccc2c(c1)C(c1ccc(F)cc1)CN2C1CCN(CCN2CCNC2=O)CC1 (centres unmarked) [Compound 18b, 2,3-Dihydro-3-(4-fluorophenyl)-1-[1-[2-(imidazolidin-2-on-1-yl)ethyl]-4-piperidyl]-5-methyl-1H-indole]
IC50 [1]: 0.0043 µM
IC50 [2]: 1.1 µM

Structure (SMILES): Cc1ccc2c(c1)c(-c1ccc(F)cc1)cn2C1CCN(C(C)C)CC1 [Compound 4s, 3-(4-Fluorophenyl)-5-methyl-1-[1-(2-propyl)-4-piperidyl]-lH-indole, maleate]
IC50 [1]: 0.012 µM
IC50 [2]: 0.33 µM

Structure (SMILES): O=C1NCCN1CCN1CCC(N2CC(c3ccc(F)cc3)c3cc(F)ccc32)CC1 (centres unmarked) [Compound 4r, 2,3-Dihydro-3-(4-fluorophenyl)-1-[1-[2-(imidazolidin-2-on-1-yl)ethyl]-4-piperidyl]-5-fluoro-1H-indole]
IC50 [1]: 0.0034 µM
IC50 [2]: 0.23 µM

Structure (SMILES): Cc1ccc2c(c1)c(-c1ccc(F)cc1)cn2C1CCN(C)CC1 [Compound 11a, 3-(4-Fluorophenyl)-5-methyl-1-(1-methyl-4-piperidyl)-1H-indole, fumarate]
IC50 [1]: 0.0045 µM
IC50 [2]: 0.54 µM

Structure (SMILES): CC(C)N1CCN(CCN2CCC(n3cc(-c4ccc(F)cc4)c4ccccc43)CC2)C1=O [Compound 4l, 3-(4-Fluorophenyl)-1-[1-[2-[3-(2-propyl)imidazolidin-2-on-1-yl]ethyl]-4-piperidyl]-1H-indole, hydrochloride, hydrate]
IC50 [1]: 0.0033 µM
IC50 [2]: 0.074 µM

Structure (SMILES): Cc1c(-c2ccccc2)c2ccccc2n1C1CCN(CCN2CCNC2=O)CC1 [Compound 7c, 1-[1-[2-(Imidazolidin-2-on-1-yl)ethyl]-4-piperidyl]-2-methyl-3-phenyl-1H-indole]
IC50 [1]: 0.0078 µM
IC50 [2]: 5.3 µM

Structure (SMILES): Cc1ccc2c(c1)c(-c1ccc(F)cc1)c(C)n2C1CCN(CCN2CCNC2=O)CC1 [Compound 7a, 2,5-Dimethyl-3-(4-fluorophenyl)-1-[1-[2-(imidazolidin-2-on-1-yl)ethyl]-4-piperidyl]-1H-indole]
IC50 [1]: 0.0034 µM
IC50 [2]: 6.9 µM

Structure (SMILES): Cc1ccc2c(c1)c(-c1ccc(F)cc1)cn2C1CCN(CCNC(=O)N(C)C)CC1 [Compound 13b, 1-[1-[2-(3,3-Dimethyl-1-ureido)ethyl]-4-piperidyl]-3-(4-fluorophenyl)-5-methyl-1H-indole]
IC50 [1]: 0.0023 µM
IC50 [2]: 0.26 µM

Structure (SMILES): Cc1ccc2c(c1)c(-c1ccc(F)cc1)c(Cl)n2C1CCN(CCN2CCN(C(C)C)C2=O)CC1 [Compound 27a, 2-Chloro-3-(4-fluorophenyl)-5-methyl-1-[1-[2-[3-(2-propyl)imidazolidin-2-on-1-yl]ethyl]-4-piperidyl]-1H-indole]
IC50 [1]: 0.01 µM
IC50 [2]: 3.2 µM

Structure (SMILES): O=C1NCCN1CCN1CC=C(n2cc(-c3ccc(F)cc3)c3cc(C(F)(F)F)ccc32)CC1 [Compound 6f, 3-(4-Fluorophenyl)-1-[1-[2-(imidazolidin-2-on-1-yl)ethyl]-1,2,3,6-tetrahydropyridin-4-yl]-5-trifluoromethyl-1H-indole]
IC50 [1]: 0.0036 µM
IC50 [2]: 0.44 µM

Source: patent US5393761A, “3-arylindole compounds” (H. Lundbeck A/S, priority 1990, dated 1995)
